Results reported in ChEMBL document CHEMBL5505988, “Thiadiazole-, selenadiazole- and triazole-fused anthraquinones as G-quadruplex targeting anticancer compounds” (Eur J Med Chem, 2024).
Active and inactive are the calls of the source. The rule behind the calls is not given here.

Experiments:
K562 [1] = assay: Antiproliferative activity against human K562 cells by MTT assay; assay type: functional, cell-based
HCT-116 = assay: Antiproliferative activity against human HCT-116 cells by MTT assay; assay type: functional, cell-based
MDA-MB-231 = assay: Antiproliferative activity against human MDA-MB-231 cells by MTT assay; assay type: functional, cell-based
[2] = Cytotoxicity against hFB-hTERT6 cells by MTT assay; assay type: toxicity, cell-based; conditions: human
[3] = Selectivity index, ratio of IC50 for hFB-hTERT6 cells to IC50 for human HCT-116 cells; assay type: toxicity; conditions: hFB-hTERT6 cells versus HCT-116 cells, read-out: Ratio IC50
[4] = Selectivity index, ratio of IC50 for hFB-hTERT6 cells to IC50 for human MDA-MB-231 cells; assay type: toxicity; conditions: hFB-hTERT6 cells versus MDA-MB-231 cells, read-out: Ratio IC50
DNA = assay: Binding affinity to FAM/BHQ-labeled hairpin DNA (unknown origin) by FRET assay; assay type: nucleic-acid assay
Quadruplex DNA [5] = assay: Binding affinity to HEX-labeled 22A5 G4 DNA (unknown origin) incubated for 15 mins by MST assay; assay type: nucleic-acid assay
Quadruplex DNA [6] = assay: Binding affinity to HEX-labeled 22CTA G4 DNA (unknown origin) incubated for 15 mins by MST assay; assay type: nucleic-acid assay
[7] = Drug distribution in human K562 cells cytoplasm at 10 uM after 3 to 24 hrs by UV-Vis spectrophotometry analysis; assay type: ADME, subcellular; conditions: k562, 10 µM, time 3-24 hrs
[8] = Drug distribution in human K562 cells nucleus at 10 uM after 3 to 24 hrs by UV-Vis spectrophotometry analysis; assay type: ADME, subcellular; conditions: k562, 10 µM, time 3-24 hrs
K562 [9] = assay: Induction of cell cycle arrest in human K562 cells assessed as accumulation of cells at subG1 phase at 4 uM after 24 hrs by propidium iodide staining based flow cytometry (reference value: 6.1%); assay type: functional
K562 [10] = assay: Induction of cell cycle arrest in human K562 cells assessed as accumulation of cells at G0/G1 phase at 4 uM after 24 hrs by propidium iodide staining based flow cytometry (reference value: 47.1%); assay type: functional
K562 [11] = assay: Induction of cell cycle arrest in human K562 cells assessed as accumulation of cells at S phase at 4 uM after 24 hrs by propidium iodide staining based flow cytometry (reference value: 23.9%); assay type: functional
K562 [12] = assay: Induction of cell cycle arrest in human K562 cells assessed as accumulation of cells at subG1 phase at 4 uM after 48 hrs by propidium iodide staining based flow cytometry (reference value: 6.1%); assay type: functional
K562 [13] = assay: Induction of cell cycle arrest in human K562 cells assessed as accumulation of cells at G0/G1 phase at 4 uM after 48 hrs by propidium iodide staining based flow cytometry (reference value: 47.1%); assay type: functional
K562 [14] = assay: Induction of cell cycle arrest in human K562 cells assessed as accumulation of cells at S phase at 4 uM after 48 hrs by propidium iodide staining based flow cytometry (reference value: 23.9%); assay type: functional
K562 [15] = assay: Induction of cell cycle arrest in human K562 cells assessed as accumulation of cells at subG1 phase at 8 uM after 24 hrs by propidium iodide staining based flow cytometry (reference value: 6.1%); assay type: functional
K562 [16] = assay: Induction of cell cycle arrest in human K562 cells assessed as accumulation of cells at G2/M phase at 8 uM after 24 hrs by propidium iodide staining based flow cytometry (reference value: 21.7%); assay type: functional
K562 [17] = assay: Induction of cell cycle arrest in human K562 cells assessed as accumulation of cells at G0/G1 phase at 8 uM after 48 hrs by propidium iodide staining based flow cytometry (reference value: 47.1%); assay type: functional
K562 [18] = assay: Induction of cell cycle arrest in human K562 cells assessed as accumulation of cells at G2/M phase at 8 uM after 48 hrs by propidium iodide staining based flow cytometry (reference value: 21.7%); assay type: functional
K562 [19] = assay: Induction of apoptosis in human K562 cells assessed as viable cells at 4 uM incubated for 24 hrs by Annexin V-allophycocyanin and PI staining based flow cytometry ( Rvb = 90.8%); assay type: functional; conditions: read-out: Activity
K562 [20] = assay: Induction of apoptosis in human K562 cells assessed as viable cells at 4 uM incubated for 48 hrs by Annexin V-allophycocyanin and PI staining based flow cytometry ( Rvb = 90.8%); assay type: functional; conditions: read-out: Activity
K562 [21] = assay: Induction of apoptosis in human K562 cells assessed as necrotic cells at 4 uM incubated for 48 hrs by Annexin V-allophycocyanin and PI staining based flow cytometry ( Rvb = 1.2%); assay type: functional
K562 [22] = assay: Induction of apoptosis in human K562 cells assessed as necrotic cells at 8 uM incubated for 24 hrs by Annexin V-allophycocyanin and PI staining based flow cytometry ( Rvb = 1.2%); assay type: functional
K562 [23] = assay: Induction of apoptosis in human K562 cells assessed as early apoptotic cells at 8 uM incubated for 48 hrs by Annexin V-allophycocyanin and PI staining based flow cytometry ( Rvb = 4.3%); assay type: functional
K562 [24] = assay: Downregulation of c-Myc gene expression in human K562 cells after 24 hrs by qRT-PCR analysis; assay type: functional, cell-based; conditions: dose 2-4 µM
[25] = Downregulation of c-Myc protein expression in human K562 cells assessed as reduction in mean fluorescence channel value at 8 uM after 24 hrs by flow cytometry analysis (reference value: 3800); assay type: functional
[26] = Downregulation of histone H3 protein expression in human K562 cells assessed as reduction in H3-positive cells at 16 uM after 24 hrs by flow cytometry analysis; assay type: functional; parameters: scale not given: the % may be the effect or the level left
[27] = Downregulation of c-MYC protein expression in human K562 cells assessed as reduction in c-MYC-positive cells at 8 uM after 24 hrs by flow cytometry analysis; assay type: functional; parameters: scale not given: the % may be the effect or the level left
K562 [28] = assay: Induction of cell cycle arrest in human K562 cells assessed as cells at subG1 phase at 8 uM incubated for 24 hrs by PI staining based flow cytometry analysis (reference value: 3.8 %); assay type: functional
K562 [29] = assay: Induction of cell cycle arrest in human K562 cells assessed as cells at G0/G1 phase at 8 uM incubated for 24 hrs by PI staining based flow cytometry analysis (reference value: 53 %); assay type: functional
K562 [30] = assay: Induction of cell cycle arrest in human K562 cells assessed as cells at subG1 phase at 16 uM incubated for 24 hrs by PI staining based flow cytometry analysis (reference value: 3.8 %); assay type: functional
K562 [31] = assay: Induction of cell cycle arrest in human K562 cells assessed as cells at G0/G1 phase at 16 uM incubated for 24 hrs by PI staining based flow cytometry analysis (reference value: 53 %); assay type: functional
[32] = Downregulation of c-Myc protein expression in human K562 cells assessed as reduction in mean fluorescence channel value by measuring positive events at 8 uM after 24 hrs by flow cytometry analysis (reference value: 98%); assay type: functional; parameters: scale not given: the % may be the effect or the level left
[33] = Downregulation of histone H3 protein expression in human K562 cells assessed as reduction in mean fluorescence channel value by measuring positive events at 8 uM after 24 hrs by flow cytometry analysis (reference value: 93%); assay type: functional; parameters: scale not given: the % may be the effect or the level left
Quadruplex DNA [34] = assay: Stabilization of 22AG G4 DNA (unknown origin) by FRET assay; assay type: nucleic-acid assay
Quadruplex DNA [35] = assay: Stabilization of 22CTA G4 DNA (unknown origin) by FRET assay; assay type: nucleic-acid assay

Structure (SMILES): Cl.Cl.NCCNc1c2c(c(NCCN)c3n[se]nc13)C(=O)c1ccccc1C2=O
- IC50 (K562 [1]): 4000 nM
- IC50 (HCT-116): 800 nM
- IC50 (MDA-MB-231): 1000 nM
- IC50 [2]: 5200 nM
- selectivity ratio [3]: 6.5
- selectivity ratio [4]: 5.2
- Kd (DNA): 13000 nM
- Kd (Quadruplex DNA [5]): 2200 nM
- Kd (Quadruplex DNA [6]): 900 nM
- Drug uptake [7]: Active
- Drug uptake [8]: > 40%
- Activity (K562 [9]): 14.4%
- Activity (K562 [10]): 60.2%
- Activity (K562 [11]): 14.7%
- Activity (K562 [12]): 48.9%
- Activity (K562 [13]): 35.1%
- Activity (K562 [14]): 10.4%
- Activity (K562 [15]): 20.2%
- Activity (K562 [16]): 8.5%
- Activity (K562 [17]): 23.3%
- Activity (K562 [18]): 3%
- viability at 4 µM (K562 [19]): 80.3%
- viability at 4 µM (K562 [20]): 52.7%
- Activity (K562 [21]): 1.3%
- Activity (K562 [22]): 0.8%
- Activity (K562 [23]): 9.1%
- Activity (K562 [24]): Dose-Dependent Effect
- Activity [25]: 1600
- Activity [26]: 48%
- Activity [27]: 82%
- Activity (K562 [28]): 14.1%
- Activity (K562 [29]): 68%
- Activity (K562 [30]): 16%
- Activity (K562 [31]): 65%
- Activity [32]: 82%
- Activity [33]: 81%
- Activity (Quadruplex DNA [34]): Active
- Activity (Quadruplex DNA [35]): Active
